Measured values from PMC5748833, “Synthesis and Biological Evaluation of Novel Hybrid Molecules Containing Purine, Coumarin and Isoxazoline or Isoxazole Moieties” (The Open Medicinal Chemistry Journal, 2017).

Assays:
[1] = Reducing activity of the stable radical DPPH; conditions: 100 μM compound, after 20 min
In short: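 Compounds (100 μM) mixed with equal volume of 100 μM DPPH in absolute ethanol at room temperature; absorbance at 517 nm read after 20 and 60 min against ethanol control. Activity given as RA% (reducing activity); NDGA standard.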

[2] = molecular target: T1, soybean lipoxygenase (Glycine max, UniProt P08170); assay: Soybean lipoxygenase inhibition in vitro; format: biochemical; conditions: for IC50: read-out: LOX IC50 μΜ
T1 construct: purchased Sigma Chemical, Co. (St. Louis, MO, USA)
T1 sequence (P08170 1-839): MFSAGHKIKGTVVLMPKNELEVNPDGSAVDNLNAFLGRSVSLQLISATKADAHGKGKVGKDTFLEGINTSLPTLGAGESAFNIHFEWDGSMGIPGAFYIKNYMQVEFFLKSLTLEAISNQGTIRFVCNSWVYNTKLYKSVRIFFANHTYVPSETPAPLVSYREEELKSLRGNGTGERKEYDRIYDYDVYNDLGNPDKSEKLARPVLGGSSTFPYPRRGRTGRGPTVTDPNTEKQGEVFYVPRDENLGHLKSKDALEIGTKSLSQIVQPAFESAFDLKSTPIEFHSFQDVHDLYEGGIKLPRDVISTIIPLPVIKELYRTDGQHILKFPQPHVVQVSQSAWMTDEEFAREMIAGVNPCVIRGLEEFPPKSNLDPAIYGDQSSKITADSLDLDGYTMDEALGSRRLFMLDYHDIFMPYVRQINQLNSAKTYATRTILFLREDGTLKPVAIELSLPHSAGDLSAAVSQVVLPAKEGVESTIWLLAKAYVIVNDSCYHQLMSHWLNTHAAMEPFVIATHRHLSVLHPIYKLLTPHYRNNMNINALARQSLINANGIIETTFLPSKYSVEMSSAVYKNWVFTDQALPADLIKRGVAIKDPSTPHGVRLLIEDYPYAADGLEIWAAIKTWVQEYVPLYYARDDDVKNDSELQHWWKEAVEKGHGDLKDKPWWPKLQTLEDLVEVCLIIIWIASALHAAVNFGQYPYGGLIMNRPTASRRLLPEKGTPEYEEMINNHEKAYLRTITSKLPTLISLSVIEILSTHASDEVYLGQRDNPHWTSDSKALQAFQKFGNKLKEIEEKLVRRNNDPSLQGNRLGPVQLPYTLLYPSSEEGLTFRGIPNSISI

[3] = molecular target: T2, equine serum butyrylcholinesterase (esBChE) (Equus caballus, UniProt P81908); assay: Inhibition of esBChE (Ellman's test); format: biochemical; conditions: read-out: esBChE % inhibn. @ 10 μΜ
T2 construct: purchased Sigma; host or cells: equine serum
T2 sequence (P81908 whole entry): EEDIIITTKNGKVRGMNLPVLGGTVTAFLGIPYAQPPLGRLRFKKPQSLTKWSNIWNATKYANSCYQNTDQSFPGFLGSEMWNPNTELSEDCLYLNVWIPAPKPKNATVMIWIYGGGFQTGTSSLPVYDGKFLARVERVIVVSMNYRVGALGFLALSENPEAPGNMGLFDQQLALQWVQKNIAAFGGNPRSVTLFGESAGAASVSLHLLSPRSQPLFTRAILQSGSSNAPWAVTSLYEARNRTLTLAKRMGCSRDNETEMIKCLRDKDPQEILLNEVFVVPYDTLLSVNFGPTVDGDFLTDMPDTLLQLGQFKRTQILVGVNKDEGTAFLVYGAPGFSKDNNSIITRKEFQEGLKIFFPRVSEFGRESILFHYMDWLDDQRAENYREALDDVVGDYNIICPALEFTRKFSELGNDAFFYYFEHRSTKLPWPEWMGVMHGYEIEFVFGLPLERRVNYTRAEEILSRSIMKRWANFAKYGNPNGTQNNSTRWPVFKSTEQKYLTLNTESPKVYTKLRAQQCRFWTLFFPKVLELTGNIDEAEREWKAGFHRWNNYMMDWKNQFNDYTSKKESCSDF
From the text: 2.2.2.5 Inhibition Study on ChEs in vitro
In vitro inhibition of electric eel acetylcholinesterase (eeAChE; 463 U/mg, Sigma) and equine serum butyrylcholinesterase (esBChE; 13 U/mg, Sigma) was investigated with a 96-well plate procedure based on the classical Ellman’s spectrophotometric test, as already described.

[4] = molecular target: T3, rat monoamine oxidase B (Rattus norvegicus, UniProt P19643); assay: Inhibition of MAO-B (spectrofluorimetric method); format: biochemical; conditions: for MAO-B (%) @ 10μΜ: 10 μM compound
T3 construct: from tissue
T3 sequence (P19643 1-520): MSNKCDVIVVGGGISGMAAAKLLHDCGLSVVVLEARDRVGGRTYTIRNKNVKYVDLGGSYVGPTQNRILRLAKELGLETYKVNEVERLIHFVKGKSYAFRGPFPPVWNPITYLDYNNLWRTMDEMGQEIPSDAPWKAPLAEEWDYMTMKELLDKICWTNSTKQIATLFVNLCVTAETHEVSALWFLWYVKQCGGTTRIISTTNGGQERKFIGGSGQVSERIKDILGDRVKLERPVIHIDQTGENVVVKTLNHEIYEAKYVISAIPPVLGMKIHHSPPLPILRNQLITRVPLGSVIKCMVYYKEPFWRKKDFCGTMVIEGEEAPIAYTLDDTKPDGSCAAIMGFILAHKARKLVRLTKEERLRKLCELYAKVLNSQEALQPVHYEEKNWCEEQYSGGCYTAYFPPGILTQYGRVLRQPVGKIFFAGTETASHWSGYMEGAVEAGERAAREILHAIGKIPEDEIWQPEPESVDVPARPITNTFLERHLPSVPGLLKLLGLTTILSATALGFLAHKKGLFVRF
From the text: 2.2.2.6 Inhibition Study on MAOs in vitro
Inhibition of rat monoamine oxidase A and B was studied by means of a spectrofluorimetric method as previously detailed.

Row | SMILES | RA% @ 100μΜ (reducing activity, DPPH) [1] | IC50 [2] [µM] | inhibition at 10 µM [3] [%] | MAO-B (%) @ 10μΜ [4] | %LOX @ 100μΜ ([2]; 100 μM compound) | IC50 ([4]; read-out: MAO-B IC50 μΜ) [µM]
1 | O=c1cc(OCC2CC(Cn3cnc4c(N5CCCCC5)ncnc43)=NO2)c2ccccc2o1 (stereo not drawn) [4f] | 3% | 53 | 36 | no | – | –
2 | Cc1cc(=O)oc2ccc(OCC3=NOC(Cn4cnc5c(Cl)ncnc54)C3)cc12 (stereo not drawn) [11b] | 5% | – | 8 | – | no | 9.5
3 | O=c1cc(OCc2cc(Cn3cnc4c(N5CCOCC5)ncnc43)no2)c2ccccc2o1 [13i] | no | 76 | 18 | 9% | – | –
